Laboratory results reported in US20050080113A1, “Medicinal compositions” (priority 2001, published 2005).

**Q.** With `Cc1cc(C)cc(-c2nc(NC(=O)c3cccnc3)sc2-c2cc(C)nc(C)c2)c1` [H 42-2, N-[4 (3,5 dimethylphenyl)-5 (2,6 dimethyl-4 pyridyl)-1,3 thiazol-2 yl]nicotinamide] as the compound, how does the melting point read?
**A.** Its melting point is 267 to 268 °C.

**Q.** Which melting point does the source give for `CC(=O)Nc1cc(-c2sc(C)nc2-c2cccc(C)c2)ccn1` [H 82-10, N-[4 [2 methyl-4 (3-methylphenyl)-1,3 thiazol-5 yl]-2 pyridyl]acetamide] here?
**A.** Its melting point is 162 to 163 °C.

**Q.** With `CSc1ccc(-c2nc(-c3cccc(C)c3)c(-c3ccnc(NCc4ccc5ccccc5c4)c3)s2)cc1` [D 19-20, N-[4 [4 (3 methylphenyl)-2 (4 methylthiophenyl)-1,3 thiazol-5 yl]-2 pyridyl]-N-(2-naphthylmethyl)amine] as the compound, how does the melting point read?
**A.** Its melting point is 144 to 145 °C.

**Q.** Which melting point does the source give for `CCC(=O)Nc1cc(-c2sc(C(C)O)nc2-c2cccc(Cl)c2)ccn1` (stereo not shown) [H 105, N-[4 [4 (3 chlorophenyl)-2-(1 hydroxyethyl)-1,3 thiazol-5 yl]-2 pyridyl]propionamide] here?
**A.** The melting point was 131 to 132 °C.

**Q.** For `CCc1nc(-c2ccccc2)c(-c2ccnc(NC(=O)OC(C)(C)C)c2)s1` [H 79-1, 5 [2 (tert-butoxycarbonylamino)-4 pyridyl]-2 ethyl-4 phenyl-1,3 thiazole], which melting point is on record?
**A.** The melting point was 154 to 155 °C.

**Q.** With `O=C(Nc1nc(-c2ccc(F)cc2)c(-c2ccnc(NC3CCCCC3)c2)s1)c1cccnc1` [H 42-5, N-[5 (2 cyclohexylamino-4-pyridyl)-4 (4 fluorophenyl)-1,3 thiazol-2 yl]nicotinamide] as the compound, how does the melting point read?
**A.** The melting point was 136 to 138 °C.

**Q.** With `CCc1nc(-c2cccc(C)c2)c(-c2ccnc(NC(=O)CC3CCCC3)c2)s1` [H 89, N-[4 [2 ethyl-4 (3-methylphenyl)-1,3 thiazol-5 yl]-2 pyridyl]cyclopentylacetamide] as the compound, how does the melting point read?
**A.** The melting point was 85 to 86 °C.

**Q.** For `CCc1nc(-c2ccc(C)cc2)c(-c2ccnc(NC(=O)Cc3ccccc3)c2)s1` [L 68-8, N-[4 [2 ethyl-4 (4-methylphenyl)-1,3 thiazol-5 yl]-2 pyridyl]phenylacetamide], which melting point is on record?
**A.** Its melting point is 128 to 129 °C.

**Q.** Which melting point does the source give for `Cc1cccc(-c2nc(-c3ccccc3)sc2-c2ccnc(C)c2)c1` [H 14-6, 4 (3 methylphenyl)-5 (2-methyl-4 pyridyl)-2 phenyl-1,3 thiazole] here?
**A.** Its melting point is 79 to 80 °C.

**Q.** For `CNc1nc(-c2cccc(C)c2)c(-c2ccnc(NC3CCCCC3)c2)s1` [H 36-2, N-methyl-[5 (2-cyclohexylamino-4 pyridyl)-4 (3 methylphenyl)-1,3 thiazol-2-yl]amine], which melting point is on record?
**A.** Its melting point is 211 to 212 °C.

**Q.** With `CC(=O)Nc1cc(-c2sc(-c3ccc(S(C)(=O)=O)cc3)nc2-c2cccc(C)c2)ccn1` [H 98-1, N-[4 [4 (3 methylphenyl)-2-(4 methylsulfonylphenyl)-1,3 thiazol-5 yl]-2 pyridyl]acetamide] as the compound, how does the melting point read?
**A.** The melting point was 222 to 223 °C.

**Q.** For `CCCc1nc(-c2cccc(Cl)c2)c(-c2ccnc(NC(=O)CC)c2)s1` [H 30-9, N-[4-[4-(3-chlorophenyl)-2-propyl-1,3-thiazol-5-yl]-2-pyridyl]propionamide], which melting point is on record?
**A.** Its melting point is 103 to 104 °C.

**Q.** Which melting point does the source give for `CCc1nc(-c2cccc(C)c2)c(-c2ccnc(NC(=O)c3ccsc3)c2)s1` [L 39-1, N-[4 [2 ethyl-4 (3-methylphenyl)-1,3 thiazol-5 yl]-2 pyridyl]-3-thiophenecarboxamide] here?
**A.** The melting point was 99 to 101 °C.

**Q.** Which melting point does the source give for `CCCCCC(=O)Nc1cc(-c2sc(CC)nc2-c2cccc(Cl)c2)ccn1` [H 88-2, N-[4 [4 (3 chlorophenyl)-2-ethyl-1,3 thiazol-5 yl]-2 pyridyl]hexanamide] here?
**A.** The melting point was 114 to 115 °C.

**Q.** Which melting point does the source give for `Cc1cccc(-c2nc(NC(=O)c3cccnc3)sc2-c2ccnc(F)c2)c1` [H 42-6, N-[5 (2 fluoro-4 pyridyl)-4 (3 methylphenyl)-1,3 thiazol-2 yl]nicotinamide] here?
**A.** The melting point was 229 to 231 °C.

**Q.** Which melting point does the source give for `CSCCc1nc(-c2cccc(C)c2)c(-c2ccnc(N)c2)s1` [H 99-1, 4 [4 (3 methylphenyl)-2 [2-(methylthio)ethyl]-1,3 thiazol-5 yl]-2 pyridylamine] here?
**A.** Its melting point is 98 to 99 °C.

**Q.** With `Cc1cccc(-c2nc(-c3ccc(S(C)(=O)=O)cc3)sc2-c2ccnc(NC(=O)c3cccs3)c2)c1` [D 21-3, N-[4 [4 (3 methylphenyl)-2-(4 methylsulfonylphenyl)-1,3 thiazol-5 yl]-2 pyridyl]-2-thiophenecarboxamide] as the compound, how does the melting point read?
**A.** Its melting point is 199 to 201 °C.

**Q.** With `CSc1ccc(-c2nc(-c3cccc(Cl)c3)c(-c3ccnc(NC(=O)C(C)(C)C)c3)s2)cc1` [H 30-12, N-[4 [4 (3 chlorophenyl)-2 [4 (methylthio)phenyl]-1,3 thiazol-5 yl]-2-pyridyl]pivalamide] as the compound, how does the melting point read?
**A.** The melting point was 119 to 120 °C.

**Q.** With `CCc1nc(-c2ccc(Cl)cc2)c(-c2ccnc(NC(C)=O)c2)s1` [H 82-6, N-[4 [4 (4 chlorophenyl)-2-ethyl-1,3 thiazol-5 yl]-2 pyridyl]acetamide] as the compound, how does the melting point read?
**A.** The melting point was 190 to 191 °C.

**Q.** With `CCc1nc(-c2ccc(F)cc2)c(-c2ccnc(NC(=O)Cc3ccccc3)c2)s1` [L 68-7, N-[4 [2 ethyl-4 (4-fluorophenyl)-1,3 thiazol-5 yl]-2 pyridyl]phenylacetamide] as the compound, how does the melting point read?
**A.** The melting point was 178 to 179 °C.

**Q.** With `Cc1cccc(-c2nc(N)sc2-c2ccnc(NC3CCCC3)c2)c1` [H 34-3, [5 (2 cyclopentylamino-4-pyridyl)-4 (3 methylphenyl)-1,3 thiazol-2 yl]amine] as the compound, how does the melting point read?
**A.** The melting point was 169 to 170 °C.

**Q.** For `CC(=O)Nc1cc(-c2sc(C(C)O)nc2-c2cccc(C)c2)ccn1` (stereo not shown) [H 111-1, N-[4 [2 (1 hydroxyethyl)-4-(3 methylphenyl)-1,3 thiazol-5 yl]-2 pyridyl]acetamide], which melting point is on record?
**A.** The melting point was 99 to 102 °C.

**Q.** With `Cc1cc(-c2sc(N)nc2-c2ccc(F)cc2)ccn1` [H 7-8, [4 (4 fluorophenyl)-5 (2-methyl-4 pyridyl)-1,3 thiazol-2 yl]amine] as the compound, how does the melting point read?
**A.** Its melting point is 233 to 234 °C.

**Q.** With `Cc1cccc(-c2nc(-c3ccc(S(C)(=O)=O)cc3)sc2N2C=CC=CC2N2CCCCC2)c1` (stereo not shown) [H 35-2, 4 (3 methylphenyl)-2 (4-methylsulfonylphenyl)-5 (2 piperidino-1 pyridyl)-1,3 thiazole] as the compound, how does the melting point read?
**A.** The melting point was 155 to 157 °C.

**Q.** Which melting point does the source give for `CC(C)(C)OC(=O)N1CCC(c2nc(-c3cccc(Cl)c3)c(-c3ccnc(N)c3)s2)CC1` [H 80, 4 [2 (1 tert-butoxycarbonylpiperidin-4 yl)-4 (3 chlorophenyl)-1,3 thiazol-5 yl]-2 pyridylamine] here?
**A.** The melting point was 143 to 145 °C.

**Q.** For `CCc1nc(-c2ccc(F)cc2)c(-c2ccnc(NC(C)=O)c2)s1` [H 82-2, N-[4 [2 ethyl-4 (4-fluorophenyl)-1,3 thiazol-5 yl]-2 pyridyl]acetamide], which melting point is on record?
**A.** Its melting point is 190 to 191 °C.

**Q.** With `COc1ccc(-c2nc(NC(=O)c3ccccc3)sc2-c2ccnc(N)c2)cc1` [H 51, N-[5 (2 amino-4 pyridyl)-4-(4 methoxyphenyl)-1,3 thiazol-2 yl]benzamide] as the compound, how does the melting point read?
**A.** Its melting point is 219 to 222 °C.

**Q.** With `Cc1cccc(-c2nc(-c3ccc(F)cc3)sc2-c2ccnc(N)c2)c1` [H 18-1, 4 [2 (4 fluorophenyl)-4-(3 methylphenyl)-1,3 thiazol-5 yl]-2 pyridylamine] as the compound, how does the melting point read?
**A.** Its melting point is 160 to 162 °C.

**Q.** For `CSc1ccc(-c2nc(-c3cccc(C)c3)c(-c3ccnc(NCCCc4ccccc4)c3)s2)cc1` [D 19-19, N-[4-[4-(3-methylphenyl)-2-(4-methylthiophenyl)-1,3-thiazol-5-yl]-2-pyridyl]-N-(3-phenylpropyl)amine], which melting point is on record?
**A.** Its melting point is 106 to 107 °C.

**Q.** For `CCc1nc(-c2ccc(SC)cc2)c(-c2ccnc(N)c2)s1` [H 20-5, 4 [2 ethyl-4 [4-(methylthio)phenyl]-1,3 thiazol-5 yl]-2 pyridylamine], which melting point is on record?
**A.** Its melting point is 119 to 120 °C.

**Q.** With `Cc1cccc(-c2nc(-c3ccccc3Cl)sc2-c2ccnc(NC(=O)c3ccccc3)c2)c1` [D 16-13, N-[4 [2 (2 chlorophenyl)-4 (3 methylphenyl)-1,3 thiazol-5 yl]-2 pyridyl]benzamide] as the compound, how does the melting point read?
**A.** The melting point was 138 to 140 °C.

**Q.** With `CCC(=O)Nc1cc(-c2sc(-c3ccc(SC)cc3)nc2-c2cccc(Cl)c2)ccn1` [H 30-11, N-[4 [4 (3 chlorophenyl)-2 [4 (methylthio)phenyl]-1,3 thiazol-5 yl]-2-pyridyl]propionamide] as the compound, how does the melting point read?
**A.** Its melting point is 187 to 188 °C.

**Q.** Which melting point does the source give for `Cc1cccc(-c2nc(CCc3ccccc3)sc2-c2ccnc(C)c2)c1` [H 14-8, 4 (3 methylphenyl)-5 (2-methyl-4 pyridyl)-2 (2 phenylethyl)-1,3 thiazole] here?
**A.** The melting point was 64 to 65 °C.

**Q.** For `CSc1ccc(-c2nc(-c3cccc(C)c3)c(-c3ccnc(NC(=O)c4ccc5ccccc5c4)c3)s2)cc1` [D 16-18, N-[4 [4 (3 methylphenyl)-2 (4 methylthiophenyl)-1,3 thiazol-5 yl]-2 pyridyl]-2-naphthamide], which melting point is on record?
**A.** The melting point was 184 to 186 °C.

**Q.** Which melting point does the source give for `CCc1nc(-c2cccc(C(F)(F)F)c2)c(-c2ccnc(NC(C)=O)c2)s1` [H 82-3, N-[4 [2 ethyl-4 (3-trifluoromethylphenyl)-1,3 thiazol-5 yl]-2 pyridyl]acetamide] here?
**A.** Its melting point is 146 to 147 °C.

**Q.** For `Cc1cccc(-c2nc(-c3ccc(F)cc3)sc2-c2ccnc(NC(=O)CCc3ccccc3)c2)c1` [D 16-12, N-[4-[2-(4-fluorophenyl)-4-(3-methylphenyl)-1,3-thiazol-5-yl]-2-pyridyl]-3-phenylpropionamide], which melting point is on record?
**A.** The melting point was 169 to 171 °C.

**Q.** With `Cc1cccc(-c2nc(C3CCN(C)CC3)sc2-c2ccnc(NC(=O)c3ccccc3)c2)c1` [L 44, N-[4 [4 (3 methylphenyl)-2 (1 methylpiperidin-4 yl)-1,3-thiazol-5 yl]-2 pyridyl]benzamide] as the compound, how does the melting point read?
**A.** The melting point was 151 to 152 °C.

**Q.** With `COc1ccc(C(=O)Nc2nc(-c3cc(C)cc(C)c3)c(-c3ccnc(C)c3)s2)cn1` [H 48-3, N-[4-(3,5-dimethylphenyl)-5-(2-methyl-4-pyridyl)-1,3-thiazol-2-yl]-6-methoxynicotinamide] as the compound, how does the melting point read?
**A.** Its melting point is 242 to 244 °C.

**Q.** For `Nc1nc(-c2ccc(F)cc2)c(-c2ccnc(NC3CCCCC3)c2)s1` [H 36-1, [5 (2 cyclohexylamino-4-pyridyl)-4 (4 fluorophenyl)-1,3 thiazol-2 yl]amine], which melting point is on record?
**A.** The melting point was 194 to 195 °C.

**Q.** With `CSc1ccc(-c2nc(-c3cccc(C)c3)c(-c3ccnc(NC(=O)CCc4ccccc4)c3)s2)cc1` [D 16-16, N-[4-[4-(3-methylphenyl)-2-(4-methylthiophenyl)-1,3-thiazol-5-yl]-2-pyridyl]-3-phenylpropionamide] as the compound, how does the melting point read?
**A.** The melting point was 174 to 175 °C.
